# Source: patent US20120016011A1, “RNA Interference Mediated Inhibition of Connective Tissue Growth Factor (CTGF) Gene Expression Using Short Interfering Nucleic Acid (siNA)” (Merck Sharp & Dohme Corp., priority 2009, published 2012)
# [invAb] = inverted abasic unit; m = 2'-O-methyl; r = 2'-OH (RNA); f = 2'-fluoro
# Experiments:
# [1] = system: CTGF protein; experiment: CTGF Western Blot in siNA-transfected NHLF cells (6-well plate); assay type: cell-based, human; conditions: for Mean % KD (30 nM, 72 h) n = 5: CTGF protein; for Mean % KD (30 nM, 72 h) n = 5 / Density (CTGF)/Density (α-Tubulin) (3 pM, 72 hours) / Density (CTGF)/Density (α-Tubulin) (300 pM, 72 hours) / Density (CTGF)/Density (α-Tubulin) (30 nM, 72 hours): NHLF cells; for Density (CTGF)/Density (α-Tubulin) (3 pM, 72 hours) / Density (CTGF)/Density (α-Tubulin) (300 pM, 72 hours): n = 3, ratio ± S.D.; for Density (CTGF)/Density (α-Tubulin) (30 nM, 72 hours): n = 5, ratio ± S.D.; for % Protein Reduction at 30 nM (72 hrs): human NHLF cells, mean ± S.D.
# Procedure: NHLF cells were plated in 6-well plates at final counts of 70,000 cells/well in 2 ml of complete growth media. Transfection was performed using 2.5 uL of RNAiMax per well. Final concentration of siNAs was 30 nM (screen) and 30, 0.3, and 0.003 nM (dose response study). Protein lysates were harvested 24, 48, and 72 hours post-transfection (screen) and 72 hours post-transfection (dose response study). Protein lysates were prepared using Cell Extraction Buffer (Invitrogen, cat# FNN0011) according to manufacturer's instructions. Protein concentration was measured using a Bradford Quick Start Kit (Bio-Rad, cat# 500-0205).
# The protein source for the Western Blot experiments were from transfection of NHLF cells in a 6 well plate, as described above.
# Protein samples were diluted 1:1 in 2× Laemmli buffer with 5% β-mercapto-ethanol and incubated at 95° C. for 5 minutes. 40-50 ug of protein was loaded in each lane of 10% Tris-HCl gel. One lane was designated for MagicMark Protein Standard (Invitrogen # LC5602). The gel was run at 100V for approximately 2 hours. Protein was transferred to a PVDF membrane at 100V for 60 minutes. Once the transfer was finished, the membrane was blocked in 1% Casein in PBS (BioRad Cat#161-0783) for 1 hour on a plate rocker at room temperature followed by the overnight incubation at 4° C. with goat […] anti-CTGF primary antibody (Santa Cruz Biotechnology, cat# L-20) diluted 1:200 in 1% Casein in PBS. On the next day, the blot was washed 4×5 minutes in PBST (0.1% Tween-20 in PBS) solution and incubated for 30 minutes at room temperature with rabbit anti-goat secondary antibody (Pierce Biotechnology, cat# 31402) diluted 1:1,000 in 1% Casein in PBS. Then, the blot was washed 4×5 minutes with PBST and incubated for 1 minute with ECL Western Blotting Substrate (Pierce Biotechnology, Cat# 32106). The bands were visualized on the Bio-Rad VersaDoc Imager.
# The protein bands were quantified by computing their density which is defined by the ratio between the total intensity of all pixels and the area of the rectangle drawn around each band (intensity/mm^2). The density was calculated by the BioRad software.
# The level of protein was quantified using the Bio-Rad VersaDoc Imager according to the protocols of that piece of equipment. A pixel count was performed in each lane using an area of identical size. Each sample was then compared to the appropriate control treated sample and converted to a percent of protein remaining compared to control.
# The effects of lead siNAs on CTGF protein level were compared to the effects of the universal control using a two tail Student's T-test to obtain a P value. P<0.05 was considered significant.
# The densities of CTGF bands were normalized to the respective densities of α-Tubulin by calculating the ratio of the density of CTGF band and the density of α-Tubulin band. The ratios of the treatments were then compared to the ratio of the control group using an unpaired t-test with unequal variances.
# [2] = system: CTGF mRNA; experiment: CTGF mRNA knockdown (Taqman RT-PCR) after siNA transfection of mouse NIH 3T3 cells; assay type: cell-based; conditions: mouse NIH3T3 cells, 10 nM siNA, 24 hrs, average of 3 experiments, vs non-targeting control
# In short: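 Mouse NIH 3T3 cells, 5000/well, transfected 24 h after plating with siNA at 10 nM final using RNAiMax, 24 h exposure without media change. CTGF mRNA by TaqMan RT-qPCR with GAPDH, knockdown via comparative Ct (2^−ΔΔCt) against non-targeting control siNA.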
substance,measurement,setting,value
"48042-DC: siNA duplex; sense SEQ ID NO: 49 B GAcAuuAAcucAuuAGAcu TTB; antisense SEQ ID NO: 50 AGUcuAAuGAGuuAAuGucUU (sense GACAUUAACUCAUUAGACUTT; antisense AGUCUAAUGAGUUAAUGUCUU; sense: DNA at AGT, 2'-fluoro at CU, [invAb] at 5' end, 3' end, backbone not given here; antisense: sugars from the 5' end rrrffmmfmmmffmmfmffmm, backbone not given here)","Mean % KD (30 nM, 72 h) n = 5",[1],86 ± 13%
same,"Density (CTGF)/Density (α-Tubulin) (3 pM, 72 hours)",[1],0.45 ± 0.13
same,"Density (CTGF)/Density (α-Tubulin) (300 pM, 72 hours)",[1],0.11 ± 0.06
same,"Density (CTGF)/Density (α-Tubulin) (30 nM, 72 hours)",[1],0.09 ± 0.11
same,% Protein Reduction at 30 nM (72 hrs),[1],86 ± 13%
same,% KD Mouse,[2],30 ± 4%
"48046-DC: siNA duplex; sense SEQ ID NO: 57 B cAcAGcAccAGAAuGuAuA TTB; antisense SEQ ID NO: 58 UAUAcAuucuGGuGcuGuGUU (sense CACAGCACCAGAAUGUAUATT; antisense UAUACAUUCUGGUGCUGUGUU; sense: DNA at AGT, 2'-fluoro at CU, [invAb] at 5' end, 3' end, backbone not given here; antisense: sugars from the 5' end rrrmfmffffmmfmffmfmmm, backbone not given here)","Mean % KD (30 nM, 72 h) n = 5",[1],82 ± 11%
same,"Density (CTGF)/Density (α-Tubulin) (3 pM, 72 hours)",[1],0.56 ± 0.3
same,"Density (CTGF)/Density (α-Tubulin) (300 pM, 72 hours)",[1],0.13 ± 0.08
same,"Density (CTGF)/Density (α-Tubulin) (30 nM, 72 hours)",[1],0.11 ± 0.10
same,% Protein Reduction at 30 nM (72 hrs),[1],82 ± 11%
same,% KD Mouse,[2],19 ± 3%
"48047-DC: siNA duplex; sense SEQ ID NO: 59 B cGAGuAAuAuGccuGcuAu TTB; antisense SEQ ID NO: 60 AUAGcAGGcAuAuuAcucGUU (sense CGAGUAAUAUGCCUGCUAUTT; antisense AUAGCAGGCAUAUUACUCGUU; sense: DNA at AGT, 2'-fluoro at CU, [invAb] at 5' end, 3' end, backbone not given here; antisense: sugars from the 5' end rrrmfmmmfmfmffmfffmmm, backbone not given here)","Mean % KD (30 nM, 72 h) n = 5",[1],58 ± 26%
same,"Density (CTGF)/Density (α-Tubulin) (3 pM, 72 hours)",[1],0.51 ± 0.4
same,"Density (CTGF)/Density (α-Tubulin) (300 pM, 72 hours)",[1],0.17 ± 0.1
same,"Density (CTGF)/Density (α-Tubulin) (30 nM, 72 hours)",[1],0.22 ± 0.13
same,% Protein Reduction at 30 nM (72 hrs),[1],58 ± 26%
same,% KD Mouse,[2],18 ± 3%
"48048-DC: siNA duplex; sense SEQ ID NO: 61 B GAuAGcAucuuAuAcGAGu TTB; antisense SEQ ID NO: 62 ACUcGuAuAAGAuGcuAucUU (sense GAUAGCAUCUUAUACGAGUTT; antisense ACUCGUAUAAGAUGCUAUCUU; sense: DNA at AGT, 2'-fluoro at CU, [invAb] at 5' end, 3' end, backbone not given here; antisense: sugars from the 5' end rrrfmfmfmmmmfmffmffmm, backbone not given here)","Mean % KD (30 nM, 72 h) n = 5",[1],83 ± 10%
same,"Density (CTGF)/Density (α-Tubulin) (3 pM, 72 hours)",[1],0.31 ± 0.2
same,"Density (CTGF)/Density (α-Tubulin) (300 pM, 72 hours)",[1],0.09 ± 0.06
same,"Density (CTGF)/Density (α-Tubulin) (30 nM, 72 hours)",[1],0.10 ± 0.10
same,% Protein Reduction at 30 nM (72 hrs),[1],83 ± 10%
same,% KD Mouse,[2],21 ± 5%
"48055-DC: siNA duplex; sense SEQ ID NO: 75 B cAAGuuAuuuAAAucuGuu TTB; antisense SEQ ID NO: 76 AACAGAuuuAAAuAAcuuGUU (sense CAAGUUAUUUAAAUCUGUUTT; antisense AACAGAUUUAAAUAACUUGUU; sense: DNA at AGT, 2'-fluoro at CU, [invAb] at 5' end, 3' end, backbone not given here; antisense: sugars from the 5' end rrrmmmfffmmmfmmfffmmm, backbone not given here)","Mean % KD (30 nM, 72 h) n = 5",[1],84 ± 5%
same,"Density (CTGF)/Density (α-Tubulin) (3 pM, 72 hours)",[1],0.28 ± 0.04
same,"Density (CTGF)/Density (α-Tubulin) (300 pM, 72 hours)",[1],0.10 ± 0.06
same,"Density (CTGF)/Density (α-Tubulin) (30 nM, 72 hours)",[1],0.09 ± 0.04
same,% Protein Reduction at 30 nM (72 hrs),[1],84 ± 5%
same,% KD Mouse,[2],24 ± 2%
